Laboratory results published in ChEMBL document CHEMBL6114943, “Engineered Cyclotide Blocks Neuronal Excitotoxicity” (J Med Chem, 2025).
The source made the active and inactive calls. The rule behind the calls is not given here. Where a SMILES comes first, the peptide text is derived from it. Bridges are numbered along the chain shown (N, C = ends).

Legend:
[1] = Stability in C57BL/6 mouse plasma assessed as half life at 100 uM incubated for 300 min by HPLC analysis; assay type: ADME, cell-free
[2] = Stability in C57BL/6 mouse plasma assessed as parent compound remaining at 100 uM measured after 5 hrs by HPLC analysis relative to control; assay type: ADME, cell-free; details: read-out: Stability
[3] = Stability in C57BL/6 mouse plasma assessed as drug degradation at 100 uM measured < 15 mins in presence of alteplase by HPLC analysis; assay type: ADME, cell-free; details: 0.25 h
[4] = Stability in C57BL/6 mouse plasma assessed as drug degradation at 100 uM measured after 5 hrs in presence of alteplase by HPLC analysis; assay type: ADME, cell-free
[5] = Stability in C57BL/6 mouse plasma assessed as parent compound remaining at 100 uM measured after 24 hrs by HPLC analysis; assay type: ADME, cell-free; details: read-out: Stability
[6] = Stability in C57BL/6 mouse plasma assessed as parent compound remaining at 100 uM measured after 24 hrs in presence of alteplase by HPLC analysis relative to control; assay type: ADME, cell-free; details: read-out: Stability
[7] = Stability in C57BL/6 mouse plasma assessed as drug degradation by measuring parent compound remaining at 100 uM measured after 5 hrs in presence of alteplase by HPLC analysis relative to control; assay type: ADME, cell-free; details: read-out: Stability
[8] = Stability in C57BL/6 mouse plasma assessed as drug degradation by measuring parent compound remaining at 100 uM measured after 5 hrs by HPLC analysis relative to control; assay type: ADME, cell-free; details: read-out: Stability
Neuron [9] = test: Cytotoxicity against mouse primary neuron upto 1 uM incubated for 24 hrs; assay type: toxicity, cell-based
Neuron [10] = test: Neuroprotective activity against NMDA-induced cell death in mouse primary neuron assessed as reduction in cell viability preincubated with compound for 1 hrs followed by NMDA addition and measured after 1 hrs by PI staining based analysis relative to control; assay type: functional; details: time 2.0 hrs
Mus musculus [11] = test: Neuroprotective activity against pilocarpine-induced seizure in C57BL6 mouse assessed as survival rate at 3 nmol/g, iv pretreated with compound for 1 hrs followed by pilocarpine induction and measured after 2 hrs relative to control; assay type: functional; details: time 3 hrs
[12] = Drug uptake in mouse Primary neuron at 500 nM incubated for 60 mins by inverted confocal microscopic analysis relative to control; assay type: ADME, cell-based; details: 1 h, 0.5 µM
[13] = Drug uptake in mouse Primary neuron at 100 nM incubated for 60 mins by inverted confocal microscopic analysis relative to control; assay type: ADME, cell-based; details: 1 h, 0.1 µM
[14] = Drug uptake in mouse Primary neuron at 100 nM measured at 60 mins by inverted confocal microscopic analysis; assay type: ADME, cell-based; details: 1 h, 0.1 µM
Neuron [15] = test: Neuroprotective activity against NMDA-induced cell death in mouse primary neuron assessed as cell viability preincubated with compound for 1 hrs followed by NMDA addition and measured after 1 hrs by PI staining based analysis relative to control; assay type: functional; details: time 2 hrs
Neuron [16] = test: Neuroprotective activity against Amyloid beta-induced cell death in mouse primary neuron assessed as cell viability preincubated with compound for 1 hrs followed by Amyloid beta addition and measured after 1 hrs by PI staining based analysis relative to control; assay type: functional; details: time 2 hrs
Disks large homolog 4 = Disks large homolog 4 (Homo sapiens, UniProt P78352); test: Binding affinity to PSD-95 (unknown origin) assessed as binding constant (Kd) by MST analysis
[17] = Toxicity in C57BL/6 mouse assessed as histological changes in kidney at 3 nmol/g, iv administered 3 consecutive days by H and E staining based analysis; assay type: organism-based; details: in vivo
[18] = Toxicity in C57BL/6 mouse assessed as histological changes in liver at 3 nmol/g, iv administered 3 consecutive days by H and E staining based analysis; assay type: organism-based; details: in vivo
[19] = Toxicity in C57BL/6 mouse assessed as histological changes in lung at 3 nmol/g, iv administered 3 consecutive days by H and E staining based analysis; assay type: organism-based; details: in vivo
[20] = Toxicity in C57BL/6 mouse assessed as histological changes in spleen at 3 nmol/g, iv administered 3 consecutive days by H and E staining based analysis; assay type: organism-based; details: in vivo
Neuron [21] = test: Neuroprotective activity against NMDA-induced cell death in mouse primary neuron assessed as reduction in cell viability at 100 nM preincubated with compound for 1 hrs followed by NMDA addition and measured after 1 hrs by PI staining based analysis (reference value: 60.01 +/- 4%); assay type: functional; details: time 2 hrs
Neuron [22] = test: Neuroprotective activity against Amyloid beta-induced cell death in mouse primary neuron assessed as cell viability at 100 nM preincubated with compound for 1 hrs followed by Amyloid beta addition and measured after 1 hrs by PI staining based analysis; assay type: functional; details: time 2.0 hrs
Mus musculus [23] = test: Neuroprotective activity against pilocarpine-induced seizure in C57BL6 mouse assessed as survival rate at 30 nmol/g, po pretreated with compound for 1 hrs followed by pilocarpine induction and measured after 2 hrs relative to control; assay type: functional; details: time 3 hrs

Disks large homolog 4, sequence (P78352 whole entry): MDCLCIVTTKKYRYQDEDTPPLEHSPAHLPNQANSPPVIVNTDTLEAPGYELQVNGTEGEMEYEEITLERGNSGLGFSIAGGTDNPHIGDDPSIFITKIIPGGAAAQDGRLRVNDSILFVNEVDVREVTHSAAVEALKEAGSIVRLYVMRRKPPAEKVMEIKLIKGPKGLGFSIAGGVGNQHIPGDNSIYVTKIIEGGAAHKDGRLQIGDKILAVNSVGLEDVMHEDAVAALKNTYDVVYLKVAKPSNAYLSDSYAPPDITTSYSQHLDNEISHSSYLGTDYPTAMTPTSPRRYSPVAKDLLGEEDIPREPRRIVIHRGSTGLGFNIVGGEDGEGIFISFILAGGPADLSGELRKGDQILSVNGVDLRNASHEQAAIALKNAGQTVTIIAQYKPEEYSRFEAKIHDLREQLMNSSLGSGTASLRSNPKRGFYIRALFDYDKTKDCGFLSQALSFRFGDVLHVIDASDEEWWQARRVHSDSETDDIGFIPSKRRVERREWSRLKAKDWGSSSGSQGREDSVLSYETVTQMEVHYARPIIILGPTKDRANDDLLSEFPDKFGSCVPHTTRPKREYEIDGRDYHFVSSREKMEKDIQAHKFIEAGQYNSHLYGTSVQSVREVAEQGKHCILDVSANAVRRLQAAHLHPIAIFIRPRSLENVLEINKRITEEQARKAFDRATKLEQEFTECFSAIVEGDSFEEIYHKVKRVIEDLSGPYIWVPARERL

## CC[C@H](C)[C@H](NC(=O)[C@H](CO)NC(=O)[C@H](CO)NC(=O)[C@H](CC(C)C)NC(=O)[C@H](CCCCN)NC(=O)[C@H](CCCNC(=N)N)NC(=O)[C@H](CCCNC(=N)N)NC(=O)[C@H](CCCNC(=N)N)NC(=O)[C@H](CCC(N)=O)NC(=O)[C@H](CCCNC(=N)N)NC(=O)[C@H](CCCNC(=N)N)NC(=O)[C@H](CCCCN)NC(=O)[C@H](CCCCN)NC(=O)[C@H](CCCNC(=N)N)NC(=O)CNC(=O)[C@H](Cc1ccc(O)cc1)NC(=O)c1ccc(C(=O)[O-])cc1-c1c2ccc(=[N+](C)C)cc-2oc2cc(N(C)C)ccc12)C(=O)N[C@@H](CCC(=O)O)C(=O)N[C@@H](CO)C(=O)N[C@@H](CC(=O)O)C(=O)N[C@H](C(=O)O)C(C)C
[1]
  half-life at 100 µM: ~45 min
[2]
  remaining at 5 h, 100 µM: 9%
[3]
  Stability: Unstable

## CC[C@@H](C)[C@@H](NC(=O)[C@@H](CO)NC(=O)[C@@H](CO)NC(=O)[C@@H](CC(C)C)NC(=O)[C@@H](CCCCN)NC(=O)[C@@H](CCCNC(=N)N)NC(=O)[C@@H](CCCNC(=N)N)NC(=O)[C@@H](CCCNC(=N)N)NC(=O)[C@@H](CCC(N)=O)NC(=O)[C@@H](CCCNC(=N)N)NC(=O)[C@@H](CCCNC(=N)N)NC(=O)[C@@H](CCCCN)NC(=O)[C@@H](CCCCN)NC(=O)[C@@H](CCCNC(=N)N)NC(=O)CNC(=O)[C@@H](Cc1ccc(O)cc1)NC(=O)c1ccc(C(=O)[O-])cc1-c1c2ccc(=[N+](C)C)cc-2oc2cc(N(C)C)ccc12)C(=O)N[C@H](CCC(=O)O)C(=O)N[C@H](CO)C(=O)N[C@H](CC(=O)O)C(=O)N[C@@H](C(=O)O)C(C)C
[4]
  Stability: Unstable
[5]
  remaining at 24 h, 100 µM: 80%
[6]
  remaining at 24 h, 100 µM: 80%
[7]
  remaining at 5 h, 100 µM: 82%
[8]
  remaining at 5 h, 100 µM: 85%

## CC[C@H](C)[C@@H]1NC(=O)[C@H](CO)NC(=O)[C@H](CO)NC(=O)[C@H](CC(C)C)NC(=O)[C@H](CCCCN)NC(=O)[C@@H]2CSSC[C@@H]3NC(=O)[C@H](CC(=O)O)NC(=O)[C@H](CO)NC(=O)[C@H](CC(=O)O)NC(=O)[C@H](CCCNC(=N)N)NC(=O)[C@H](CCCNC(=N)N)NC(=O)[C@@H]4CSSC[C@H](NC(=O)[C@H]([C@@H](C)CC)NC(=O)[C@H](CSSC[C@H](NC(=O)[C@H](C)NC(=O)[C@H](CC(=O)O)NC(=O)[C@H](C)NC(=O)[C@H](CCC(=O)O)NC1=O)C(=O)N1CCC[C@H]1C(=O)N[C@@H](CCCNC(=N)N)C(=O)N[C@@H]([C@@H](C)CC)C(=O)N[C@@H](CC(C)C)C(=O)N[C@@H](CCCNC(=N)N)C(=O)N[C@@H](CCCNC(=N)N)C(=O)N[C@@H](CCCNC(=N)N)C(=O)N[C@@H](CCCNC(=N)N)C(=O)N4)NC(=O)[C@H](C)NC(=O)CNC(=O)[C@@H]1CCCN1C3=O)C(=O)N[C@@H](CCCNC(=N)N)C(=O)NCC(=O)N[C@@H](CC(N)=O)C(=O)NCC(=O)N[C@@H](Cc1ccc(O)cc1)C(=O)N2 (cyclo(ACICRGNGYCKLSSIEADACPRILRRRRCRRDSDCPG); disulfide 2-20, 4-29, 10-35)
Neuron [9]
  Activity: Non-toxic
Neuron [10]
  Activity: inactive
Mus musculus [11]
  Survival: 30%

## CC[C@H](C)[C@@H]1NC(=O)[C@@H]2CSSC[C@@H]3NC(=O)[C@H](C(C)C)NC(=O)[C@H](CC(=O)O)NC(=O)[C@H](CO)NC(=O)[C@H](CCC(=O)O)NC(=O)[C@H]([C@@H](C)CC)NC(=O)[C@H](CO)NC(=O)[C@H](CO)NC(=O)[C@H](CC(C)C)NC(=O)[C@H](CCCCN)NC(=O)[C@@H]4CSSC[C@H](NC(=O)[C@H](CC(=O)O)NC(=O)[C@H](CO)NC(=O)[C@H](CC(=O)O)NC(=O)[C@H](CCCNC(=N)N)NC(=O)[C@H](CCCNC(=N)N)NC(=O)[C@H](CSSC[C@H](NC1=O)C(=O)N[C@@H](CCCNC(=N)N)C(=O)NCC(=O)N[C@@H](CC(N)=O)C(=O)NCC(=O)N[C@@H](Cc1ccc(O)cc1)C(=O)N4)NC(=O)[C@H](CCCCN)NC(=O)[C@H](CCCCN)NC(=O)[C@H](CC(C)C)NC(=O)[C@H]([C@@H](C)CC)NC(=O)[C@H](CCCCN)NC(=O)[C@@H]1CCCN1C3=O)C(=O)N1CCC[C@H]1C(=O)NCC(=O)N[C@@H](C)C(=O)N2 (cyclo(ACICRGNGYCKLSSIESDVCPKILKKCRRDSDCPG); disulfide 2-20, 4-27, 10-33) [listing 1 of 2 here]
[12]
  Drug uptake: 70.6%
[13]
  Drug uptake: Not_active
[14]
  Drug uptake: Active
Neuron [9]
  Activity: Non-toxic

## CC[C@H](C)[C@@H]1NC(=O)[C@@H]2CSSC[C@@H]3NC(=O)[C@H](C(C)C)NC(=O)[C@H](CC(=O)O)NC(=O)[C@H](CO)NC(=O)[C@H](CCC(=O)O)NC(=O)[C@H]([C@@H](C)CC)NC(=O)[C@H](CO)NC(=O)[C@H](CO)NC(=O)[C@H](CC(C)C)NC(=O)[C@H](CCCCN)NC(=O)[C@@H]4CSSC[C@H](NC(=O)[C@H](CC(=O)O)NC(=O)[C@H](CO)NC(=O)[C@H](CC(=O)O)NC(=O)[C@H](CCCNC(=N)N)NC(=O)[C@H](CCCNC(=N)N)NC(=O)[C@H](CSSC[C@H](NC1=O)C(=O)N[C@@H](CCCNC(=N)N)C(=O)NCC(=O)N[C@@H](CC(N)=O)C(=O)NCC(=O)N[C@@H](Cc1ccc(O)cc1)C(=O)N4)NC(=O)[C@H](CCCCN)NC(=O)[C@H](CCCCN)NC(=O)[C@H](CC(C)C)NC(=O)[C@H]([C@@H](C)CC)NC(=O)[C@H](CCCCN)NC(=O)[C@@H]1CCCN1C3=O)C(=O)N1CCC[C@H]1C(=O)NCC(=O)N[C@@H](C)C(=O)N2 (cyclo(ACICRGNGYCKLSSIESDVCPKILKKCRRDSDCPG); disulfide 2-20, 4-27, 10-33) [listing 2 of 2 here]
Neuron [15]
  Activity: 31.8%
Neuron [16]
  Activity: 32.6%

## CC[C@H](C)[C@H](NC(=O)[C@H](CO)NC(=O)[C@H](CO)NC(=O)[C@H](CC(C)C)NC(=O)[C@H](CCCCN)NC(=O)[C@H](CCCN=C(N)N)NC(=O)[C@H](CCCN=C(N)N)NC(=O)[C@H](CCCN=C(N)N)NC(=O)[C@H](CCC(N)=O)NC(=O)[C@H](CCCN=C(N)N)NC(=O)[C@H](CCCN=C(N)N)NC(=O)[C@H](CCCCN)NC(=O)[C@H](CCCCN)NC(=O)[C@H](CCCN=C(N)N)NC(=O)CNC(=O)[C@@H](N)Cc1ccc(O)cc1)C(=O)N[C@@H](CCC(=O)O)C(=O)N[C@@H](CO)C(=O)N[C@@H](CC(=O)O)C(=O)N[C@H](C(=O)O)C(C)C [NERINETIDE]
Neuron [9]
  Activity: Non-toxic
Disks large homolog 4
  Kd: 1200 nM
[17]
  Activity: Non-toxic
[18]
  Activity: Non-toxic
[19]
  Activity: Non-toxic
[20]
  Activity: Non-toxic

## CC[C@H](C)[C@H](NC(=O)[C@H](CO)NC(=O)[C@H](CO)NC(=O)[C@H](CC(C)C)NC(=O)[C@H](CCCCN)NC(=O)[C@H](CCCNC(=N)N)NC(=O)[C@H](CCCNC(=N)N)NC(=O)[C@H](CCCNC(=N)N)NC(=O)[C@H](CCC(N)=O)NC(=O)[C@H](CCCNC(=N)N)NC(=O)[C@H](CCCNC(=N)N)NC(=O)[C@H](CCCCN)NC(=O)[C@H](CCCCN)NC(=O)[C@H](CCCNC(=N)N)NC(=O)CNC(=O)[C@@H](N)Cc1ccc(O)cc1)C(=O)N[C@@H](CCC(=O)O)C(=O)N[C@@H](CO)C(=O)N[C@@H](CC(=O)O)C(=O)N[C@H](C(=O)O)C(C)C [NERINETIDE]
Neuron [21]
  Activity: 13.12%
Neuron [22]
  Activity: Active
Mus musculus [11]
  Survival: 85%
Mus musculus [23]
  Survival: 50%
